Article PMC7910569 (Scientific Data, 2021)
Where two headings read alike, the source gives them in different places.

What was measured:
SARS-CoV-2 [1] = assay type: cell-based; settings: 10 µM
Description: For the primary screen, the final compound concentration was 10 µM (in 0.1% DMSO) and each compound was tested in singlicate. Concentration-response profiling of primary hits was performed in triplicate with eight concentrations ranging from 20 µM to 20 nM (half-log dilution factor, 0.1% DMSO final). For initial dose response studies, compounds were tested on three different plates to minimise the influence of plate effects. Later dose response studies at lower concentrations were also done on the same plate. Following the addition of compounds, cells were immediately infected with SARS-CoV-2 at a multiplicity of infection (MOI) of 0.01. Positive controls were prepared with the virus but no compounds, and negative controls were prepared without the virus. After 48 h, the medium was removed and cells were fixed in 3% paraformaldehyde in phosphate-buffered saline (PBS). The plates were sealed and disinfected to inactivate the virus[13] then screened by high-content imaging using the Operetta CLS platform (PerkinElmer). The image data were processed as described below and deposited on the Image Data Resource[14].
Images were acquired using a 10× objective with nine imaged fields per well in label-free mode by digital phase contrast (DPC). […] This method improves the signal-to-noise ratio and allows for image segmentation and single-cell analysis. The images were analysed using PerkinElmer Columbus v2.9.0. The analysis sequence started with cell detection (method c, common threshold 0.05, area >100 µm^2, splitting coefficient 6.5, individual threshold 0.05, contrast >0.05) and was followed by calculating morphology, intensity and position properties as well as cell confluence (Fig. 2). The data were deposited on the Image Data Resource[14]. Although we used cell confluence as a read out parameter additional parameters were calculated and deposited as well. These parameters can be used for further analysis to include parameters related to cellular stress or cytoskeletal impairment, both critical for viral replication. Well-level data were analysed in ActivityBase (IDBS) and R v3.6.1, using cell confluence as final read out parameter. […] Outliers were eliminated according to the three-sigma method. Plate-level statistical performance was assessed using the Z’factor calculation with values between 0.35 and 1.0 representing an acceptable assay. Data for the primary screen were deposited on ChEMBL[17].Concentration-response curves were fitted in GraphPad Prism v8.0.0 (GraphPad Software) using a four-parameter […] (least squares fit). Data for the dose-response screen were deposited on ChEMBL[18].
Cytopathicity assays were conducted in 96 well Cellstar plates (Greiner bio-one) using 4 wells with cells without virus (negative control) and 4 wells with cells and with virus (positive control). A three-sigma invalidation was performed on the raw data of the controls on each plate, resulting in maximal one invalidated well per plate during primary screening. During hit confirmation and dose-response studies no wells were eliminated as all wells were within three-sigma. After invalidation the plate specific z’factor was calculated and the plate was removed if quality criteria (z’factor > 0.35) were not met. Plates passing quality control were analysed and normalized as specified above. Hits were identified by having at least 75% efficiency in blocking viral cytopathicity at 10 µM.

SARS-CoV [2] = settings: read-out: Reports SARS-CoV (Vero-E6) IC50, cited from earlier work
MERS-CoV [3] = settings: cited from earlier work
SARS-CoV-2 [4] = settings: Vero-E6, read-out: Reports SARS-CoV-2 (Vero-E6) IC50, cited from earlier work
SARS-CoV-2 [5] = settings: for anti-cytopathic activity against SARS-CoV-2 (in words): Caco-2, hits / concentration-response screen; for inhibition of cytopathicity in the concentration-response screen: Caco-2, compound concentrations of up to 20 µM
SARS-CoV-2 [6] = assay: microbe, parasite or virus in culture; settings: Severe acute respiratory syndrome coronavirus 2, Caco-2, 48 h, read-out: Results SARS-CoV-2 (Caco-2) IC50
in vitro = settings: human, Caco-2
MERS-CoV [7] = settings: Calu-3; read-out: Reports MERS (Vero-6, Calu-3 or BHK21) IC50; cited from earlier work
SARS-CoV [8] = settings: Calu-3; read-out: Reports SARS-CoV (Vero-E6 or Calu-3) IC50; cited from earlier work
MERS-CoV [9] = settings: BHK-21; read-out: Reports MERS (Vero-6, Calu-3 or BHK21) IC50; cited from earlier work
[10] = singlicate, Caco-2, 48 h, hit = at least 75% inhibition of cytopathicity
[11] = Vero-E6, ref 53, read-out: Reports MERS (Vero-E6) IC50

CC(C)CN(C[C@@H](O)[C@H](Cc1ccccc1)NC(=O)O[C@H]1CO[C@H]2OCC[C@H]21)S(=O)(=O)c1ccc(N)cc1 [darunavir]
activity in the primary screen (in words) (SARS-CoV-2 [1]; [10]): inactive

OC(c1cc(C(F)(F)F)nc2c(C(F)(F)F)cccc12)C1CCCCN1 (stereo not drawn) [mefloquine]
IC50 (SARS-CoV [2]; Vero-E6, ref 53): 7.41 µM | IC50 (MERS-CoV [3]; [11]): 15.5 µM | IC50 (SARS-CoV-2 [4]; ref 23): 4.33 µM | IC50 (SARS-CoV-2 [4]; ref 55): 8.06 µM | activity in the primary screen (in words) (SARS-CoV-2 [1]; [10]): identified in the primary screen

Cc1c(C(=O)Nc2ccc(N3C[C@@H](C)O[C@@H](C)C3)nc2)cccc1-c1ccc(OC(F)(F)F)cc1 [LDE225]
anti-cytopathic activity against SARS-CoV-2 (in words) (SARS-CoV-2 [5]): identified

CCC(CC)COC(=O)[C@H](C)N[P@](=O)(OC[C@H]1O[C@@](C#N)(c2ccc3c(N)ncnn23)[C@H](O)[C@@H]1O)Oc1ccccc1 [remdesivir]
IC50 (SARS-CoV-2 [6]): 0.76 ± 0.18 µM | CC50 (in vitro): > 20 µM | IC50 (SARS-CoV [2]; Vero-E6, ref 22): 0.069 µM

Nc1nc2c(ncn2[C@@H]2O[C@H](CO)[C@@H](O)[C@H]2O)c(=S)[nH]1 [thioguanosine]
IC50 (SARS-CoV-2 [6]): 0.78 µM | CI (cytotoxicity index) (SARS-CoV-2 [5]; printed as CI = IC50/CC50, Caco-2 toxicity versus SARS-CoV-2 anti-cytopathic effect): < 3

C[C@@H]1C[C@@H]([C@H](O)CC2CC(=O)NC(=O)C2)C(=O)[C@@H](C)C1 [cycloheximide]
IC50 (SARS-CoV-2 [6]): 0.58 ± 0.02 µM | CC50 at 48 h (in vitro): > 20 µM | IC50 (SARS-CoV [2]): 0.043 µM | IC50 (MERS-CoV [3]; read-out: Reports MERS (Vero-E6) IC50): 0.16 µM

Cc1cccc2c1CC[C@H](CN1CCC(c3c(Cl)cccc3Cl)CC1)C[C@@H]2O [SB-612111]
IC50 (SARS-CoV-2 [6]): 0.77 µM

CCN(CC)Cc1cc(Nc2ccnc3cc(Cl)ccc23)ccc1O [amodiaquine]
activity in the primary screen (in words) (SARS-CoV-2 [1]; [10]): inactive

O[C@@H](COc1cccc2ncccc12)CN1CCN([C@@H]2c3ccccc3[C@@H]3[C@H](c4ccccc42)C3(F)F)CC1 [LY335979, zosuquidar]
anti-cytopathic activity against SARS-CoV-2 (in words) (SARS-CoV-2 [5]): identified

NS(=O)(=O)OC[C@@H]1C[C@@H](n2ccc3c(N[C@H]4CCc5ccccc54)ncnc32)C[C@@H]1O [pevonedistat]
IC50 (SARS-CoV-2 [6]): < 1 µM

CC[C@H]1CN2CCc3cc(OC)c(OC)cc3[C@@H]2C[C@@H]1C[C@H]1NCCc2cc(OC)c(OC)cc21 [emetine]
IC50 (SARS-CoV-2 [6]): 0.52 ± 0.09 µM | CC50 (in vitro): 1.13 ± 0.5 µM | CI (cytotoxicity index) (SARS-CoV-2 [5]; human): 2 | IC50 (SARS-CoV [2]; Vero-E6, ref 53): 0.051 µM | IC50 (MERS-CoV [3]; Vero-E6, ref 54, read-out: Reports MERS (Vero-E6) IC50): 0.08 µM

C=C(c1ccccc1OCc1cccc(Cl)c1)n1ccnc1 [cloconazole]
IC50 (SARS-CoV-2 [5]; read-out: Results SARS-CoV-2 (Caco-2) IC50): ≥ 20 µM

CC(=NNC(=S)N1CC2CCC(CC2)C1)c1ccccn1 [NSC319276]
anti-cytopathic activity against SARS-CoV-2 (in words) (SARS-CoV-2 [5]): moderately potent

CNS(=O)(=O)Nc1nccc(Cc2c(C)c3ccc(Oc4ncccn4)cc3oc2=O)c1F [RO5126766]
IC50 (SARS-CoV-2 [6]): 18.2 µM | CC50 (in vitro): > 20 µM

COC(=O)C[C@](O)(CCCC(C)(C)O)C(=O)O[C@@H]1C(OC)=C[C@]23CCCN2CCc2cc4c(cc2[C@H]13)OCO4 [homo-harringtonine]
anti-cytopathic activity against SARS-CoV-2 (in words) (SARS-CoV-2 [5]): identified

CCCCN(CCCC)CC(O)c1cc(Cl)cc2c1-c1ccc(Cl)cc1/C2=C/c1ccc(Cl)cc1 (stereo not drawn) [lumefantrine]
activity in the primary screen (in words) (SARS-CoV-2 [1]; [10]): inactive

CN(C)C(=O)COC(=O)Cc1ccc(OC(=O)c2ccc(NC(=N)N)cc2)cc1 [camostat]
IC50 (SARS-CoV-2 [6]): < 1 µM | IC50 (MERS-CoV [7]): 1 µM | IC50 (SARS-CoV [8]): ~1 µM | IC50 (SARS-CoV-2 [4]; ref 23): > 50 µM | IC50 (SARS-CoV-2 [4]; ref 24): 1 µM

Cc1cccc(C)c1OCC(=O)N[C@@H](Cc1ccccc1)[C@@H](O)C[C@H](Cc1ccccc1)NC(=O)[C@H](C(C)C)N1CCCNC1=O [lopinavir]
anti-cytopathic activity against SARS-CoV-2 (in words) (SARS-CoV-2 [5]): active at the highest concentration | Reports MERS (Vero-6, Calu-3 or BHK21) IC50 (MERS-CoV [3]; Vero-E6, ref 57, 58): not active | IC50 (MERS-CoV [3]; Vero-E6, ref 57, 58, read-out: Reports MERS (Vero-6, Calu-3 or BHK21) IC50): 8 µM | IC50 (SARS-CoV-2 [4]; ref 23): 9.12 µM

CCN(CCO)CCCC(C)Nc1ccnc2cc(Cl)ccc12 (stereo not drawn) [hydroxychloroquine]
activity in the primary screen (in words) (SARS-CoV-2 [1]; [10]): inactive

COc1ccc(Cc2nccc3cc(OC)c(OC)cc23)cc1OC [papaverine]
IC50 (MERS-CoV [9]): 9.45 µM

N#CC(c1ccnc(OCc2ccc(CN3CCOCC3)cc2)n1)c1nc2ccccc2s1 (stereo not drawn) [bentamapimod]
IC50 (SARS-CoV-2 [6]): 5.9 µM | CC50 at 48 h (in vitro): > 20 µM

COc1cc(C)c2c(Oc3cccc(C(F)(F)F)c3)c(OC)cc(NC(C)CCCN)c2n1 (stereo not drawn) [tafenoquine]
inhibition of cytopathicity in the concentration-response screen (SARS-CoV-2 [5]): < 50% | activity in the primary screen (in words) (SARS-CoV-2 [1]; [10]): inactive

COc1cc(NC(C)CCCN)c2ncccc2c1 (stereo not drawn) [primaquine]
activity in the primary screen (in words) (SARS-CoV-2 [1]; [10]): inactive

CCN(CC)CCCC(C)Nc1ccnc2cc(Cl)ccc12 (stereo not drawn) [chloroquine diphosphate]
activity in the primary screen (in words) (SARS-CoV-2 [1]; 48 h): inactive

C[C@@H]1CN(Cc2ccc(F)cc2)[C@@H](C)CN1C(=O)c1cc2c(C(=O)C(=O)N(C)C)cn(C)c2cc1Cl [talmapimod]
IC50 (SARS-CoV-2 [6]): 9.6 µM | CC50 (in vitro): > 20 µM

COc1ccc2nc3cc(Cl)ccc3c(Nc3cc(CN4CCCC4)c(O)c(CN4CCCC4)c3)c2n1 [pyronaridine]
inhibition of cytopathicity in the concentration-response screen (SARS-CoV-2 [5]): < 50% | activity in the primary screen (in words) (SARS-CoV-2 [1]; [10]): inactive

CCN(CC)CCCC(C)Nc1ccnc2cc(Cl)ccc12 (stereo not drawn) [chloroquine]
IC50 (SARS-CoV-2 [6]): > 20 µM | anti-cytopathic activity against SARS-CoV-2 (in words) (SARS-CoV-2 [5]): not observed | IC50 (SARS-CoV [2]; Vero-E6, ref 56): 4.4 µM | IC50 (MERS-CoV [3]; [11]): 6.28 µM | IC50 (SARS-CoV-2 [4]; ref 22): 1.13 µM | IC50 (SARS-CoV-2 [4]; ref 55): 46.8 µM

CC(C)c1nc(CN(C)C(=O)N[C@H](C(=O)N[C@@H](Cc2ccccc2)C[C@H](O)[C@H](Cc2ccccc2)NC(=O)OCc2cncs2)C(C)C)cs1 [ritonavir]
activity in the primary screen (in words) (SARS-CoV-2 [1]; 48 h): inactive

C[C@H](CS)C(=O)N1CCC[C@H]1C(=O)O [captopril]
activity in the primary screen (in words) (SARS-CoV-2 [1]; [10]): did not identify

N=C(N)c1ccc2cc(OC(=O)c3ccc(N=C(N)N)cc3)ccc2c1 [nafamostat]
IC50 (MERS-CoV [7]): 0.1 µM | potency against SARS-CoV-2 in Caco-2 cell assay relative to previous studies using Vero-E6 cells (SARS-CoV-2 [5]; comparison with refs 27, 28): > 500 fold | IC50 (SARS-CoV-2 [4]; ref 27, 28): 22.5 µM
